Measured values: patent US10370387B2, “Tricyclic fused thiophene derivatives as JAK inhibitors” (Incyte Corporation, priority 2012, dated 2019)

Tested on: human JAK1
Experiment: In vitro JAK kinase assay (HTRF, phosphorylation of biotinylated peptide), JAK1
Type: biochemical
Settings: ratio of JAK2 IC50 to JAK1 IC50, 1 mM ATP
Method: Compounds herein were tested for inhibitory activity of JAK targets according to the following in vitro assay described in Park et al., Analytical Biochemistry 1999, 269, 94-104. The catalytic domains of human JAK1 (a.a. 837-1142), JAK2 (a.a. 828-1132) and JAK3 (a.a. 781-1124) were expressed using baculovirus in insect cells and purified. The catalytic activity of JAK1, JAK2 or JAK3 was assayed by measuring the phosphorylation of a biotinylated peptide. The phosphorylated peptide was detected by homogenous time resolved fluorescence (HTRF). IC50s of compounds were measured for each kinase in the 40 μL reactions that contain the enzyme, ATP and 500 nM peptide in 50 mM Tris (pH 7.8) buffer with 100 mM NaCl, 5 mM DTT, and 0.1 mg/mL (0.01%) BSA. For the 1 mM IC50 measurements, ATP concentration in the reactions was 1 mM. Reactions were carried out at room temperature for 1 hour and then stopped with 20 μL 45 mM EDTA, 300 nM SA-APC, 6 nM Eu-Py20 in assay buffer (Perkin Elmer, Boston, Mass.). Binding to the Europium labeled antibody took place for 40 minutes and HTRF signal was measured on a PHERA star plate reader (BMG, Cary, N.C.). The Example compounds were each tested in the Example A assay (see Table 1 for data for the compounds of the examples as tested by the assay of Example A at 1 mM ATP).

Compound	JAK2/JAK1
N#CC[C@H]1CC[C@H](n2c(C3CNC3)nc3cnc4ccsc4c32)CC1 [Example 28, [trans-4-(2-Azetidin-3-yl-1H-imidazo[4,5-d]thieno[3,2-b]pyridin-1-yl)cyclohexyl]acetonitrile]	>7
N#CCC1CCC(CO)(n2cnc3cnc4ccsc4c32)CC1 (single isomer, unassigned) [72 (second peak), [4-(Hydroxymethyl)-4-(1H-imidazo[4,5-d]thieno[3,2-b]pyridin-1-yl)cyclohexyl]acetonitrile]	>5
C[C@@H](O)c1nc2cnc3ccsc3c2n1C1CCC(NCCC#N)CC1 (single isomer, unassigned) [30 (second peak)]	>10
CCc1nc2cnc3ccsc3c2n1[C@@H]1CC[C@@H](CC#N)[C@@H](O)C1 (mixture of isomers) [Example 35]	>10
C[C@@H](O)c1nc2cnc3ccsc3c2n1C1CCCCC1 [Example 13, (1R)-1-(1-Cyclohexyl-1H-imidazo[4,5-d]thieno[3,2-b]pyridin-2-yl)ethanol]	>10
((1R,2R,4S)-2-Hydroxy-4-{2-[(1R)-1-hydroxyethyl]-1H-imidazo[4,5-d]thieno[3,2-b]pyridin-1-yl}cyclohexyl)acetonitrile and ((1S,2S,4R)-2-hydroxy-4-{2-[(1R)-1-hydroxyethyl]-1H-imidazo[4,5-d]thieno[3,2-b]pyridin-1-yl}cyclohexyl)acetonitrile [36 (second peak)]	>10
C[C@@H](O)c1nc2cnc3ccsc3c2n1[C@H]1CC[C@H](CO)CC1 [Example 11, (1R)-1-{1-[trans-4-(Hydroxymethyl)cyclohexyl]-1H-imidazo[4,5-d]thieno[3,2-b]pyridin-2-yl}ethanol]	>10
CC(C)c1nc2cnc3ccsc3c2n1[C@H]1CC[C@H](CC#N)CC1 [Example 27, [trans-4-(2-Isopropyl-1H-imidazo[4,5-d]thieno[3,2-b]pyridin-1-yl)cyclohexyl]acetonitrile]	>10
C[C@@H](O)c1nc2cnc3ccsc3c2n1[C@H]1CC[C@H](CC#N)CC1.Cl [Example 10, (trans-4-{2-[(1R)-1-Hydroxyethyl]-1H-imidazo[4,5-d]thieno[3,2-b]pyridin-1-yl}cyclohexyl)acetonitrile HCl salt]	>10
C[C@@H](O)c1nc2cnc3ccsc3c2n1[C@H]1CC[C@H](NCC(F)(F)F)CC1 [Example 4, (1R)-1-(1-{trans-4-[(2,2,2-Trifluoroethyl)amino]cyclohexyl}-1H-imidazo[4,5-d]thieno[3,2-b]pyridin-2-yl)ethanol]	>10
C[C@@H](O)c1nc2cnc3ccsc3c2n1C1CCC(NCCC#N)CC1 (single isomer, unassigned) [30 (first peak)]	>2

Second part, the compound after the results:

JAK2/JAK1	Compound
>10	CCNC(=O)C[C@H]1CC[C@H](n2c([C@@H](C)O)nc3cnc4ccsc4c32)CC1 [Example 31, N-Ethyl-2-(trans-4-{2-[(1R)-1-hydroxyethyl]-1H-imidazo[4,5-d]thieno[3,2-b]pyridin-1-yl}cyclohexyl)acetamide]
>10	N#CCc1nc2cnc3ccsc3c2n1[C@H]1CC[C@H](CC#N)OC1 [Example 73, {(2R,5S)-5-[2-(Cyanomethyl)-1H-imidazo[4,5-d]thieno[3,2-b]pyridin-1-yl]tetrahydro-2H-pyran-2-yl}acetonitrile]
>6	C[C@@H](O)c1nc2cnc3ccsc3c2n1[C@H]1CCN(C(=O)CC#N)C1 [Example 63, 3-((3S)-3-{2-[(1R)-1-Hydroxyethyl]-1H-imidazo[4,5-d]thieno[3,2-b]pyridin-1-yl}pyrrolidin-1-yl)-3-oxopropanenitrile]
>10	C[C@@H](O)c1nc2cnc3ccsc3c2n1[C@H]1CCCN(C(=O)CC#N)C1.O=C(O)C(F)(F)F [Example 51, 3-((3S)-3-{2-[(1R)-1-Hydroxyethyl]-1H-imidazo[4,5-d]thieno[3,2-b]pyridin-1-yl}piperidin-1-yl)-3-oxopropanenitrile trifluoroacetate]
>10	N#CC[C@H]1CC[C@H](n2c(CO)nc3cnc4ccsc4c32)CO1 [Example 91, {(2R,5S)-5-[2-(Hydroxymethyl)-1H-imidazo[4,5-d]thieno[3,2-b]pyridin-1-yl]tetrahydro-2H-pyran-2-yl}acetonitrile]
>10	CCCOC(=O)NC[C@H]1CC[C@H](n2c([C@@H](C)O)nc3cnc4ccsc4c32)CC1 [Example 83, Propyl [(trans-4-{2-[(1R)-1-hydroxyethyl]-1H-imidazo[4,5-d]thieno[3,2-b]pyridin-1-yl}cyclohexyl)methyl]carbamate]
>10	CC(C)OC(=O)NC[C@H]1CC[C@H](n2c([C@@H](C)O)nc3cnc4ccsc4c32)CC1 [Example 84, Isopropyl [(trans-4-{2-[(1R)-1-hydroxyethyl]-1H-imidazo[4,5-d]thieno[3,2-b]pyridin-1-yl}cyclohexyl)methyl]carbamate]
>10	CC(CC(=O)N1CCC[C@H](n2c([C@@H](C)O)nc3cnc4ccsc4c32)C1)c1ccccc1 (stereo partly drawn) [Example 55, (1R)-1-{1-[(3S)-1-(3-Phenylbutanoyl)piperidin-3-yl]-1H-imidazo[4,5-d]thieno[3,2-b]pyridin-2-yl}ethanol]
>10	COC(=O)NC[C@H]1CC[C@H](n2c(CC#N)nc3cnc4ccsc4c32)CC1 [Example 86, Methyl ({trans-4-[2-(cyanomethyl)-1H-imidazo[4,5-d]thieno[3,2-b]pyridin-1-yl]cyclohexyl}methyl)carbamate]
>10	C[C@@H](O)c1nc2cnc3ccsc3c2n1[C@H]1CC[C@@H](CC#N)C1.O=C(O)C(F)(F)F [Example 49, ((1R,3S)-3-{2-[(1R)-1-Hydroxyethyl]-1H-imidazo[4,5-d]thieno[3,2-b]pyridin-1-yl}cyclopentyl)acetonitrile trifluoroacetate]
>10	C[C@@H](O)c1nc2cnc3ccsc3c2n1[C@H]1CC[C@H](CNC(=O)OC2CCOC2)CC1 (stereo partly drawn) [Example 85, Tetrahydrofuran-3-yl [(trans-4-{2-[(1R)-1-hydroxyethyl]-1H-imidazo[4,5-d]thieno[3,2-b]pyridin-1-yl}cyclohexyl)methyl]carbamate]
>10	C[C@@H](O)c1nc2cnc3ccsc3c2n1[C@H]1CCCN(C(=O)CCCC#N)C1 [Example 59, 5-((3S)-3-{2-[(1R)-1-Hydroxyethyl]-1H-imidazo[4,5-d]thieno[3,2-b]pyridin-1-yl}piperidin-1-yl)-5-oxopentanenitrile]
>10	CC(C)OC(=O)NC[C@H]1CC[C@H](n2c(CC#N)nc3cnc4ccsc4c32)CC1 [Example 88, Isopropyl ({trans-4-[2-(cyanomethyl)-1H-imidazo[4,5-d]thieno[3,2-b]pyridin-1-yl]cyclohexyl}methyl)carbamate]
>10	C[C@@H](O)c1nc2cnc3ccsc3c2n1[C@H]1CCCN(C(=O)CCc2cccnc2)C1 [Example 54, (1R)-1-{1-[(3S)-1-(3-Pyridin-3-ylpropanoyl)piperidin-3-yl]-1H-imidazo[4,5-d]thieno[3,2-b]pyridin-2-yl}ethanol]
>10	CCc1nc2cnc3ccsc3c2n1[C@H]1CC[C@H](CC#N)CC1 [Example 47, [trans-4-(2-Ethyl-1H-imidazo[4,5-d]thieno[3,2-b]pyridin-1-yl)cyclohexyl]acetonitrile]
